Data on 18 compounds can be found in US8513232B2, “Substituted spirocyclic piperidine derivatives as histamine-3 (H3) receptor ligands” (Cephalon, Inc., priority 2008, dated 2013).

In one data set the target is T1, human H3 receptor (Homo sapiens, UniProt Q9Y5N1).
T1 construct: expressed in transfected cells
Nature of the data set: Human H3 radioligand binding ([3H]-N-alpha-methylhistamine, SPA). In outline: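 Compounds (0.01 nM-30 μM) competed with approximately 1 nM [3H]-N-alpha-methylhistamine for human H3 receptor in membranes of stably transfected CHO cells, 10 μg protein per well, in Tris-HCl pH 7.4/MgCl2/BSA buffer for 4 h at room temperature. Bound radioligand measured by scintillation proximity; 10 μM clobenpropit gave non-specific binding.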

In data set [1] the target is T2, rat histamine H3 receptor (Rattus norvegicus, UniProt Q9QYN8).
T2 construct: encoding the entire 445-amino-acid rat histamine H3 receptor; expressed in transfected cells; membrane preparation
Kind of data set: Rat H3 radioligand binding ([3H]-N-alpha-methylhistamine, SPA). In outline: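 SPA-bead binding assay using [3H]-N-alpha-methylhistamine (approximately 1 nM final) with test compounds from 0.01 nM to 30 μM. Rat H3 receptor membranes came from stably transfected CHO-A3 cells; incubation ran 4 h at room temperature, in the dark, in Tris pH 7.4 buffer with MgCl2 and BSA. Clobenpropit (10 μM) gave non-specific binding.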

Setting [2] is: Table C, human H3 binding, read-out: Human H3 Ki.
[3] abbreviates: Table C, rat H3 binding, read-out: Rat H3 Ki.
Setting [4] is: Human H3 binding, Table B, Examples 136-362, read-out: hum H3 binding Ki.
Where [5] appears, read: Rat H3 binding, Table B, Examples 136-362, read-out: rat H3 binding Ki.
[6] abbreviates: Table A, human H3 binding, read-out: Human Ki.
The mark [7] stands for this setting: Table A, rat H3 binding, read-out: Rat Ki.
Where [8] appears, read: human H3 binding, Table D, read-out: Human H3 Ki.
Where [9] appears, read: rat H3 binding, Table D, read-out: Rat H3 Ki.

By Ki is commonly meant a measure of affinity in units of concentration, obtained from inhibition or displacement. One may read the melting point as the temperature of the solid-liquid transition.

Like-named read-outs stand apart in the source and are kept apart here. A value given as a limit tells only on which side of the number the result lay.

T1 sequence (Q9Y5N1 whole entry): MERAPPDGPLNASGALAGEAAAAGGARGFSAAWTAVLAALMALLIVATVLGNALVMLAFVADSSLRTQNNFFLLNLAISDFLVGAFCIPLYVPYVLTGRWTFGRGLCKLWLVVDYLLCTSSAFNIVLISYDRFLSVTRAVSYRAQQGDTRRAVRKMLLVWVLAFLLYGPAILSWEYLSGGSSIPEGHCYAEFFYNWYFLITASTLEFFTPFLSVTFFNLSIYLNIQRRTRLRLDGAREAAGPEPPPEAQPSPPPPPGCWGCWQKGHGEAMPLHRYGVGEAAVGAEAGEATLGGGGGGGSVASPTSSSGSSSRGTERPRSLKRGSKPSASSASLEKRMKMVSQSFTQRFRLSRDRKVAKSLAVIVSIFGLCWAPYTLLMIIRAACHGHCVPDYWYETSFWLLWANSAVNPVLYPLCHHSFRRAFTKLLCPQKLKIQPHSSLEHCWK
T2 sequence (Q9QYN8 whole entry): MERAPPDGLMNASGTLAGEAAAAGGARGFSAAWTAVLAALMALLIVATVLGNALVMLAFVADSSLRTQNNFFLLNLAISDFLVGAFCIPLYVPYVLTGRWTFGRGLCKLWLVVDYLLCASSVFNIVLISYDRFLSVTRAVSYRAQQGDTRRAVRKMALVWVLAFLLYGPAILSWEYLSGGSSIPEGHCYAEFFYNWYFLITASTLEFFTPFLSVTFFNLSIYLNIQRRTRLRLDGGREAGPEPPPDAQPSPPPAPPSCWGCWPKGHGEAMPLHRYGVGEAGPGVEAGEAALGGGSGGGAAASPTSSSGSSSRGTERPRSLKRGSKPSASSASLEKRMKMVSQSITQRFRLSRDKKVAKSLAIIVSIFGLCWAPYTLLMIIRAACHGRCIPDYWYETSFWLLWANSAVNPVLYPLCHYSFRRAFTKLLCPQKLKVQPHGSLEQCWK

`O=c1ccc(-c2ccc3c(c2)CCC2(CCN(C4CCC4)CC2)O3)c[nH]1` [Example 429] displayed a melting point of 260 to 262 °C. Moreover, the Ki at human H3 receptor (setting [2]) is below 200 nM. In addition, in data set [1] (setting [3]), the Ki was below 200 nM.

With `O=C(NC1CCN(c2ccc3c(c2)COC2(CCN(C4CCC4)CC2)O3)CC1)N1CCCC1` [Example 319], the melting point fell in the range of 210.2 to 212.6 °C. For the same compound, the inhibition constant (Ki) at human H3 receptor (setting [4]) is below 200 nM. Besides, the Ki in data set [1] (setting [5]) was below 200 nM.

The compound `CN(C)c1ncc(-c2ccc3c(c2)COC2(CCN(C4CCC4)CC2)O3)cn1` [Example 42] returned a melting point of 204.8 to 205.8 °C. The Ki at human H3 receptor (setting [6]) is below 200 nM. In addition, in data set [1] (setting [7]), the Ki is below 200 nM.

In turn, `Cc1cc(C2CCN(c3ccc4c(c3)COC3(CCN(C5CCC5)CC3)O4)CC2)on1` [Example 665] returned a melting point of 135.9 to 137.2 °C. For the same compound, the Ki on human H3 receptor (setting [8]) was below 200 nM. Also, the Ki in data set [1] (setting [9]) was below 200 nM.

For `O=C(c1ccccc1Nc1ccc2c(c1)COC1(CCN(C3CCC3)CC1)O2)N1CCOCC1` [Example 159], the melting point was in the range of 60 to 63 °C. For the same compound, the Ki at human H3 receptor (setting [4]) is below 200 nM. For the same compound, the Ki in data set [1] (setting [5]) was 200 to 1000 nM.

Compound `O=C(c1ccc(-c2ccc3c(c2)OC2(CCN(C4CCC4)CC2)O3)cc1)N1CCCC1` [Example 90] returned a melting point of 176.8 to 177.3 °C. In addition, at human H3 receptor (setting [6]), the inhibition constant Ki was below 200 nM. For the same compound, the inhibition constant Ki in data set [1] (setting [7]) lay within 200 to 1000 nM.

Consider `O=C(Nc1ccc2c(c1)COC1(CCN(C3CCC3)CC1)O2)c1cnccn1` [Example 304], for which the melting point lay in the range of 173 to 175 °C. For the same compound, the Ki on human H3 receptor (setting [4]) was below 200 nM. The Ki in data set [1] (setting [5]) is below 200 nM.

In the case of `Cc1nc2cccc(C(F)(F)F)c2c(=O)n1-c1ccc2c(c1)COC1(CCN(C3CCC3)CC1)O2` [Example 791], the melting point was in the range of 221 to 222 °C. Besides, at human H3 receptor (setting [8]), the Ki is below 200 nM. In data set [1] (setting [9]), the Ki is below 200 nM.

As to `O=C1N(c2ccccc2)CCN1c1ccc2c(c1)CCC1(CCN(C3CCC3)CC1)O2` [Example 229], the melting point is 182 to 185 °C. In addition, at human H3 receptor (setting [4]), the Ki was below 200 nM. In addition, in data set [1] (setting [5]), the Ki is below 200 nM.

`COC1(c2ccc3c(c2)COC2(CCN(C4CCC4)CC2)O3)CCS(=O)(=O)CC1` [Example 542] had a melting point of 199 to 201 °C. Besides, the Ki on human H3 receptor (read-out: Human H3 Ki) was below 200 nM. In addition, the Ki in data set [1] (read-out: Rat H3 kI) is below 200 nM.

The compound `CC(C)S(=O)(=O)C1CCN(c2ccc3c(c2)COC2(CCN(C4CCC4)CC2)O3)CC1` [Example 656] showed a melting point of 142.6 to 145.1 °C. In addition, the Ki on human H3 receptor (setting [8]) is below 200 nM. Further, the Ki in data set [1] (setting [9]) was below 200 nM.

In turn, `CCNC(=O)N1CCN(c2ccc3c(n2)COC2(CCN(C4CCC4)CC2)O3)CC1` [Example 254] yielded a melting point of 122 to 124 °C. In addition, the Ki on human H3 receptor (setting [4]) is below 200 nM. In addition, in data set [1] (setting [5]), the Ki is below 200 nM.

The compound `c1cc2c(cc1N1CCC(OCC3CC3)CC1)CCC1(CCN(C3CCC3)CC1)O2` [Example 424] showed a melting point of 280 to 283 °C. For the same compound, on human H3 receptor (setting [2]), the Ki is below 200 nM. The Ki in data set [1] (setting [3]) is below 200 nM.

Turning to `CCOCC1CCN(c2ccc3c(c2)COC2(CCN(C4CCC4)CC2)O3)CC1` [Example 627], the melting point fell in the range of 85.2 to 86.5 °C. Besides, the Ki at human H3 receptor (setting [8]) was below 200 nM. In addition, the Ki in data set [1] (setting [9]) was below 200 nM.

Turning to `COc1ncc(-c2ccc3c(c2)COC2(CCN(C4CCC4)CC2)O3)cc1CO` [Example 768], the melting point is 150 to 151 °C. In addition, at human H3 receptor (setting [8]), the Ki was below 200 nM. The Ki in data set [1] (setting [9]) is below 200 nM.

Consider `CN(C)S(=O)(=O)c1ccc(-c2ccc3c(c2)COC2(CCN(C4CCC4)CC2)O3)cc1Cl` [Example 621], for which the melting point fell in the range of 97 to 99 °C. Also, the Ki at human H3 receptor (setting [8]) was below 200 nM. Further, the Ki in data set [1] (setting [9]) was below 200 nM.

`COc1ccnc(-c2ccc3c(c2)COC2(CCN(C4CCC4)CC2)O3)n1` [Example 483] had a melting point of 100 to 102 °C. Besides, the Ki at human H3 receptor (read-out: Human H3 Ki) was below 200 nM. Besides, the Ki in data set [1] (read-out: Rat H3 kI) is below 200 nM.

`CNC(=O)c1ccc(Nc2ccc3c(c2)COC2(CCN(C4CCC4)CC2)O3)cc1` [Example 285] showed a melting point of 206 to 208 °C. Also, the Ki on human H3 receptor (setting [4]) is below 200 nM. For the same compound, in data set [1] (setting [5]), the Ki was below 200 nM.
